Measurements: patent US20230226005A1, “Methods of Treating, Ameliorating, Shortening Duration, and/or Reversing Symptoms and/or Complications of a Coronavirus Infection” (Yale University, priority 2020, published 2023)

Experiments:
COVID-19 infection [1] = assay: Phase IIa study: nose-family symptom score; assay type: in vivo
SARS-CoV-1 = settings: mice; reduced from 100%; concentration similar to clinically achievable concentration in humans; cited from earlier work
[2] = test system: SARS-CoV-2 cellular entry; settings: in vitro as well as in vivo; cited from earlier work
COVID-19 = settings: hospitalized COVID-19 patients; 200 mg po three times daily for 5 days; cited from earlier work
COVID-19 infection [3] = assay: Phase IIa study: COVID-19 PRO daily self-score, symptom severity score (items 1-33, 0-132); assay type: in vivo

## CN(C)C(=O)COC(=O)Cc1ccc(OC(=O)c2ccc(NC(=N)N)cc2)cc1 [camostat, 4-[[4-[(Aminoiminomethyl)amino]benzoyl]oxy]benzeneacetic acid 2-(dimethylamino)-2-oxoethyl ester]
COVID-19 infection [1]; day 0
  nose-family symptom score, Fitzmaurice model, Camostat: 7.6 (0.5)
COVID-19 infection [1]; day 1
  nose-family symptom score, Fitzmaurice model, Camostat: 6.6 (0.6)
  nose-family symptom score, Fitzmaurice model, Effect (placebo vs camostat): 1.3 (0.7)
COVID-19 infection [1]; day 2
  nose-family symptom score, Fitzmaurice model, Camostat: 6.6 (0.6)
  nose-family symptom score, Fitzmaurice model, Effect (placebo vs camostat): 0 (0.7)
COVID-19 infection [1]; day 3
  nose-family symptom score, Fitzmaurice model, Camostat: 5.7 (0.6)
  nose-family symptom score, Fitzmaurice model, Effect (placebo vs camostat): 0.5 (0.7)
COVID-19 infection [1]; day 4
  nose-family symptom score, Fitzmaurice model, Camostat: 5.6 (0.6)
  nose-family symptom score, Fitzmaurice model, Effect (placebo vs camostat): 0 (0.7)
COVID-19 infection [1]; day 5
  nose-family symptom score, Fitzmaurice model, Camostat: 5.3 (0.6)
  nose-family symptom score, Fitzmaurice model, Effect (placebo vs camostat): 1 (0.7)
COVID-19 infection [1]; day 6
  nose-family symptom score, Fitzmaurice model, Camostat: 3.9 (0.6)
  nose-family symptom score, Fitzmaurice model, Effect (placebo vs camostat): 1.4 (0.7)
COVID-19 infection [1]; day 7
  nose-family symptom score, Fitzmaurice model, Camostat: 3.6 (0.6)
  nose-family symptom score, Fitzmaurice model, Effect (placebo vs camostat): 1.2 (0.7)
COVID-19 infection [1]; day 8
  nose-family symptom score, Fitzmaurice model, Camostat: 3.3 (0.6)
  nose-family symptom score, Fitzmaurice model, Effect (placebo vs camostat): 1.5 (0.7)
COVID-19 infection [1]; day 9
  nose-family symptom score, Fitzmaurice model, Camostat: 2.9 (0.6)
  nose-family symptom score, Fitzmaurice model, Effect (placebo vs camostat): 1.3 (0.7)
COVID-19 infection [1]; day 10
  nose-family symptom score, Fitzmaurice model, Camostat: 2.9 (0.6)
  nose-family symptom score, Fitzmaurice model, Effect (placebo vs camostat): 0.9 (0.7)
COVID-19 infection [1]; day 11
  nose-family symptom score, Fitzmaurice model, Camostat: 3 (0.6)
  nose-family symptom score, Fitzmaurice model, Effect (placebo vs camostat): 0.4 (0.7)
COVID-19 infection [1]; day 12
  nose-family symptom score, Fitzmaurice model, Camostat: 2.5 (0.6)
  nose-family symptom score, Fitzmaurice model, Effect (placebo vs camostat): 0.7 (0.7)
COVID-19 infection [1]; day 13
  nose-family symptom score, Fitzmaurice model, Camostat: 2.7 (0.6)
  nose-family symptom score, Fitzmaurice model, Effect (placebo vs camostat): 0.1 (0.7)
COVID-19 infection [1]; day 14
  nose-family symptom score, Fitzmaurice model, Camostat: 2.7 (0.6)
  nose-family symptom score, Fitzmaurice model, Effect (placebo vs camostat): 0.2 (0.8)
SARS-CoV-1
  mortality following SARS-CoV-1 infection: 30-35%
[2]
  SARS-CoV-2 cellular entry: can be blocked
COVID-19
  adverse effects: adverse effects were not observed
  effect on clinical severity (e.g. escalation to ICU admission): did not have an observable effect
COVID-19 infection [3]; COVID-19 PRO self-score, vs placebo
  acceleration of COVID-19 symptom resolution: up to 5 days
COVID-19 infection [3]; day 0
  COVID-19 symptom severity score raw Mean: 34.9
  symptom score, Fitzmaurice mixed effects model, A: Camostat arm: 31.81 (2.17)
  symptom score, Fitzmaurice mixed effects model, B − A (placebo − camostat): 0
  symptom severity score, Negative binomial model, A: Camostat arm: 31.81 (2.56)
  symptom severity score, Negative binomial model, B − A: 0
COVID-19 infection [3]; day 1
  COVID-19 symptom severity score raw Mean: 30.4
  symptom score, Fitzmaurice mixed effects model, A: Camostat arm: 27.95 (2.59)
  symptom score, Fitzmaurice mixed effects model, B − A (placebo − camostat): −0.73 (2.76)
  symptom severity score, ANCOVA linear mixed model, A: Camostat arm: −2.93 (2.11)
  symptom severity score, ANCOVA linear mixed model, B − A (placebo − camostat): −1.83 (2.99)
  symptom severity score, Negative binomial model, A: Camostat arm: 28.22 (3.06)
  symptom severity score, Negative binomial model, B − A: 0.95 (0.1)
COVID-19 infection [3]; day 2
  COVID-19 symptom severity score raw Mean: 29.7
  symptom score, Fitzmaurice mixed effects model, A: Camostat arm: 26.89 (2.63)
  symptom score, Fitzmaurice mixed effects model, B − A (placebo − camostat): −3.09 (2.8)
  symptom severity score, ANCOVA linear mixed model, A: Camostat arm: −3.96 (2.16)
  symptom severity score, ANCOVA linear mixed model, B − A (placebo − camostat): −4.22 (3.02)
  symptom severity score, Negative binomial model, A: Camostat arm: 27.28 (3.05)
  symptom severity score, Negative binomial model, B − A: 0.85 (0.1)
COVID-19 infection [3]; day 3
  COVID-19 symptom severity score raw Mean: 24.1
  symptom score, Fitzmaurice mixed effects model, A: Camostat arm: 22.97 (2.6)
  symptom score, Fitzmaurice mixed effects model, B − A (placebo − camostat): −0.36 (2.79)
  symptom severity score, ANCOVA linear mixed model, A: Camostat arm: −8.01 (2.13)
  symptom severity score, ANCOVA linear mixed model, B − A (placebo − camostat): −1.34 (3.01)
  symptom severity score, Negative binomial model, A: Camostat arm: 23.35 (3.02)
  symptom severity score, Negative binomial model, B − A: 0.96 (0.13)
COVID-19 infection [3]; day 4
  COVID-19 symptom severity score raw Mean: 20.8
  symptom score, Fitzmaurice mixed effects model, A: Camostat arm: 19.69 (2.6)
  symptom score, Fitzmaurice mixed effects model, B − A (placebo − camostat): 0.89 (2.8)
  symptom severity score, ANCOVA linear mixed model, A: Camostat arm: −11.29 (2.13)
  symptom severity score, ANCOVA linear mixed model, B − A (placebo − camostat): −0.1 (3.02)
  symptom severity score, Negative binomial model, A: Camostat arm: 20.17 (2.89)
  symptom severity score, Negative binomial model, B − A: 1 (0.17)
COVID-19 infection [3]; day 5
  COVID-19 symptom severity score raw Mean: 17.7
  symptom score, Fitzmaurice mixed effects model, A: Camostat arm: 16.57 (2.6)
